Experimental data from the supplement of paper PMC13380429.

Key:
Settings in all cases: 72 h
Caco-2 [1] = test: cell viability relative to DMSO; higher = less toxic
Calu-3 [2] = test: as above
HepG2 [3] = test: as above
U2OS [4] = test: as above
Vero E6 [5] = test: as above
Calu-3 [6] = test: relative viability EC50 (midpoint between 100% and the lowest measured viability); higher = less toxic
HepG2 [7] = test: as above
U2OS [8] = test: as above
Caco-2 [9] = test: drug sensitivity score (DSS) for viability; higher = more toxic; extreme values may be limits of the assay
Calu-3 [10] = test: as above
HepG2 [11] = test: as above
U2OS [12] = test: as above
Vero E6 [13] = test: as above
Caco-2 [14] = test: relative viability EC50 (midpoint between 100% and the lowest measured viability); higher = less toxic
Vero E6 [15] = test: as above

SMILES | cell viability (Caco-2 [1]; 1 nM) [%] | cell viability (Caco-2 [1]; 10 nM) [%] | cell viability (Caco-2 [1]; 100 nM) [%] | cell viability (Caco-2 [1]; 1000 nM) [%] | cell viability (Caco-2 [1]; 10000 nM) [%] | cell viability (Calu-3 [2]; 1 nM) [%] | cell viability (Calu-3 [2]; 10 nM) [%] | cell viability (Calu-3 [2]; 100 nM) [%] | cell viability (Calu-3 [2]; 1000 nM) [%] | cell viability (Calu-3 [2]; 10000 nM) [%] | cell viability (HepG2 [3]; 1 nM) [%] | cell viability (HepG2 [3]; 10 nM) [%] | cell viability (HepG2 [3]; 100 nM) [%] | cell viability (HepG2 [3]; 1000 nM) [%] | cell viability (HepG2 [3]; 10000 nM) [%] | cell viability (U2OS [4]; 1 nM) [%] | cell viability (U2OS [4]; 10 nM) [%] | cell viability (U2OS [4]; 100 nM) [%] | cell viability (U2OS [4]; 1000 nM) [%] | cell viability (U2OS [4]; 10000 nM) [%] | cell viability (Vero E6 [5]; 1 nM) [%] | cell viability (Vero E6 [5]; 10 nM) [%] | cell viability (Vero E6 [5]; 100 nM) [%] | cell viability (Vero E6 [5]; 1000 nM) [%] | cell viability (Vero E6 [5]; 10000 nM) [%] | relative viability EC50 (Calu-3 [6]) [µM] | relative viability EC50 (HepG2 [7]) [µM] | relative viability EC50 (U2OS [8]) [µM] | drug sensitivity score (Caco-2 [9]) | drug sensitivity score (Calu-3 [10]) | drug sensitivity score (HepG2 [11]) | drug sensitivity score (U2OS [12]) | drug sensitivity score (Vero E6 [13]) | relative viability EC50 (Caco-2 [14]) [µM] | relative viability EC50 (Vero E6 [15]) [µM]
Nc1ccc(F)cc1NC(=O)c1ccc(CNC(=O)/C=C/c2cccnc2)cc1 [chidamide] | 95.3 | 104 | 97.1 | 85.1 | 55.9 | 113 | 101 | 89.4 | 49.1 | 35.1 | 97.6 | 105 | 91.4 | 69.4 | 28.1 | 101 | 103 | 104 | 77.6 | 9.8 | 95.6 | 99.7 | 95.4 | 100 | 67.5 | 0.365 | 1.17 | 1.56 | 4.1 | 10.7 | 7.4 | 8.4 | 1.4 |  | 
CS(=O)(=O)c1ccc([C@@H](O)[C@@H](CO)NC(=O)C(Cl)Cl)cc1 [thiamphenicol] | 99.7 | 89.8 | 91.7 | 93.4 | 94.4 | 106 | 94.5 | 102 | 89.7 | 97.8 | 101 | 110 | 93.4 | 101 | 67.3 | 99.5 | 97.5 | 105 | 96.6 | 99 | 95.8 | 99.3 | 92.3 | 96.8 | 98.1 | > 10 |  | > 10 | 0 | 0 | 1.4 | 0 | 0 | > 10 | > 10
c1cc(OCCN2CCCCC2)cc(-c2n[nH]c3ccc(-c4nnc[nH]4)cc23)c1 [CC-401] | 101 | 95.7 | 95.5 | 97.3 | 106 | 104 | 89.2 | 96 | 95.2 | 122 | 94.5 | 96.7 | 88.4 | 90.7 | 61.5 | 101 | 96.4 | 100 | 94.1 | 93.4 | 101 | 98 | 101 | 103 | 95.2 | > 10 |  | > 10 | 0 | 0 | 2.9 | 0 | 0 | > 10 | > 10
Cn1cc(-c2cnc3ccc4ccc(CS(=O)(=O)NCc5ccccn5)cc4c(=O)c3c2)cn1 [MK-8033] | 96.4 | 95.6 | 91.8 | 97.9 | 75.1 | 99.8 | 87.8 | 105 | 94.5 | 99.9 | 113 | 93.3 | 110 | 95.3 | 53.8 | 97.6 | 98.7 | 98.7 | 101 | 91.7 | 104 | 98.8 | 104 | 99.4 | 97.7 | > 10 |  | > 10 | 1.2 | 0 | 3.2 | 0 | 0 | > 10 | > 10
